# Legend:
# [1] = system: velvetleaf; assay: Test B pre-/postemergence herbicide test; type: in vivo, Abutilon theophrasti; conditions: for Velvetleaf plant response rating: scale 0 (no effect) to 100 (complete control)
# In short: (§1)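 Plants compared with untreated controls 13–15 days post-treatment and given a visual 0–100 injury score. Applications: preemergence to seeds; postemergence at 1- to 4-leaf (2–18 cm); paddy species flooded, 2-leaf stage. Vehicle non-phytotoxic, surfactant included.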
# [2] = system: ducksalad; assay: Test C flooded paddy test; type: in vivo, Heteranthera limosa
# [3] = system: barnyardgrass; assay: Test B flooded paddy test; type: in vivo, Echinochloa crus-galli; conditions: 1000 g ai/ha, scale 0 to 100 (0 no effect, 100 complete control)
# In short: (§2)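 Read-out: visual comparison with controls, scored 0 to 100, where 100 means complete control and 0 no effect. Formulated chemicals were applied postemergence to plants 2–18 cm tall (1- to 4-leaf), or to flooded-paddy plants at the 2-leaf stage, then held 13 to 15 days under glass.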
# [4] = system: rice; assay: Test C flooded paddy test; type: in vivo, Oryza sativa
# In short: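 Injury scored visually against controls on a 0 (no effect) to 100 (complete control) scale, 12 to 14 days after treatment in greenhouse. Flooded paddy plants treated at 2-leaf stage; postemergence plants at 1- to 4-leaf stage, 2 to 18 cm tall.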
# [5] = system: corn; assay: Test B pre-/postemergence herbicide test; type: in vivo, Zea mays; conditions: for Corn plant response rating: scale 0 (no effect) to 100 (complete control)
# In short: as §1
# [6] = system: large crabgrass; assay: Test B pre-/postemergence herbicide test; type: in vivo, Digitaria sanguinalis; conditions: for Crabgrass, Large plant response rating: scale 0 (no effect) to 100 (complete control)
# In short: as §1
# [7] = system: lambsquarters; assay: Test B pre-/postemergence herbicide test; type: in vivo, Chenopodium album; conditions: for Lambsquarters plant response rating: scale 0 (no effect) to 100 (complete control)
# In short: as §1
# [8] = system: barnyardgrass; assay: Test C flooded paddy test; type: in vivo, Echinochloa crus-galli
# In short: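 Postemergence sprays were applied to plants 2 to 18 cm tall (1- to 4-leaf stage); in the flooded paddy test, barnyardgrass was grown to the 2-leaf stage. After 12 to 14 days in a greenhouse, injury was visually rated against untreated controls on a 0–100 scale (100 = complete control).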
# [9] = system: smallflower umbrella sedge; assay: Test C flooded paddy test; type: in vivo, Cyperus difformis
# [10] = system: ducksalad; assay: Test B flooded paddy test; type: in vivo, Heteranthera limosa; conditions: 1000 g ai/ha, scale 0 to 100 (0 no effect, 100 complete control)
# In short: as §2
# [11] = system: rice; assay: Test B flooded paddy test; type: in vivo, Oryza sativa; conditions: 1000 g ai/ha, scale 0 to 100 (0 no effect, 100 complete control)
# In short: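 Formulated test chemicals went onto postemergence plants measuring 2 to 18 cm, at one to four leaves. For the paddy assay, species had reached two leaves. Scoring took place 13–15 days later by eye, relative to untreated plants, using 0 for no effect up to 100 for full control.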
# [12] = system: giant foxtail; assay: Test B pre-/postemergence herbicide test; type: in vivo, Setaria faberi; conditions: for Foxtail, Giant plant response rating: scale 0 (no effect) to 100 (complete control)
# In short: as §1
# [13] = system: Surinam grass; assay: Test B pre-/postemergence herbicide test; type: in vivo, Urochloa decumbens; conditions: for Surinam Grass plant response rating: scale 0 (no effect) to 100 (complete control)
# In short: as §1
# [14] = system: wild oat; assay: Test B postemergence herbicide test; type: in vivo, Avena fatua; conditions: scale 0 (no effect) to 100 (complete control)
# In short: as §2
# [15] = system: small flower umbrella sedge; assay: Test B flooded paddy test; type: in vivo, Cyperus difformis; conditions: 1000 g ai/ha, scale 0 to 100 (0 no effect, 100 complete control)
# In short: as §2
# [16] = system: wheat; assay: Test B postemergence herbicide test; type: in vivo, Triticum aestivum; set-up: key to Wheat plant response rating: 0 = no effect, 100 = complete control
# In short: as §2
# [17] = system: barnyardgrass; assay: Test B pre-/postemergence herbicide test; type: in vivo, Echinochloa crus-galli; conditions: for Barnyardgrass plant response rating: scale 0 (no effect) to 100 (complete control)
# In short: (§3)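 Pre: seeds sown, then sprayed. Post: 1–4-leaf plants (2–18 cm) sprayed at the same time. Paddy: flooded, treated at 2-leaf stage. Formulation: non-phytotoxic solvent with surfactant. Greenhouse 13–15 days; visual 0–100 score relative to controls.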
# [18] = system: morningglory; assay: Test B pre-/postemergence herbicide test; type: in vivo, Ipomoea coccinea; conditions: for Morningglory plant response rating: scale 0 (no effect) to 100 (complete control)
# In short: as §3
# [19] = system: blackgrass; assay: Test B postemergence herbicide test; type: in vivo, Alopecurus myosuroides; conditions: scale 0 (no effect) to 100 (complete control)
# In short: as §2
# [20] = system: pigweed; assay: Test B pre-/postemergence herbicide test; type: in vivo, Amaranthus retroflexus; conditions: for Pigweed plant response rating: scale 0 (no effect) to 100 (complete control)
# In short: as §1
# [21] = system: cocklebur; assay: Test B pre-/postemergence herbicide test; type: in vivo, Xanthium strumarium; conditions: for Cocklebur plant response rating: scale 0 (no effect) to 100 (complete control)
# In short: as §3
# [22] = 125 g ai/ha, 0 is no effect, 100 is complete control, preemergence
# [23] = 125 g ai/ha, visual rating, postemergence
# [24] = 125 g ai/ha, scale 0 to 100 (0 no effect, 100 complete control)
# [25] = 250 g ai/ha, scale of 0 to 100, 0 is no effect, 100 is complete control
# [26] = 500 g ai/ha, visual rating after 12 to 14 days, scale 0 to 100 (0 no effect, 100 complete control)
smiles,measurement,setting,value
Cc1nn(C(C)C)nc1C(=O)Nc1cccc(C(=O)N(C)C)c1 [Compound 404],"Plant response rating (0 to 100 scale), Velvetleaf",[1]; [22],20
same,Velvetleaf plant response rating,[1]; [23],30
same,Velvetleaf plant response rating,"[1]; Postemergence, 500 g ai/ha",30
same,Ducksalad plant response rating,"[2]; 62 g ai/ha, scale 0 to 100",10
same,Ducksalad plant response rating,[2]; [24],10
same,Ducksalad plant response rating,[2]; [25],20
same,"Plant response rating, Ducksalad",[2]; [26],30
same,Barnyardgrass plant response rating,[3],90
same,Rice plant response rating,"[4]; 62 g ai/ha, scale 0 to 100",0
same,Rice plant response rating,[4]; [24],0
same,Rice plant response rating,[4]; [25],45
same,"Plant response rating, Rice",[4]; [26],50
same,"Plant response rating (0 to 100 scale), Corn",[5]; [22],0
same,Corn plant response rating,[5]; [23],0
same,Corn plant response rating,"[5]; Postemergence, 500 g ai/ha",10
same,"Plant response rating (0 to 100 scale), Crabgrass, Large",[6]; [22],70
same,"Crabgrass, Large plant response rating",[6]; [23],0
same,"Crabgrass, Large plant response rating","[6]; Postemergence, 500 g ai/ha",10
same,"Plant response rating (0 to 100 scale), Lambsquarters",[7]; [22],90
same,Lambsquarters plant response rating,[7]; [23],60
same,Lambsquarters plant response rating,"[7]; Postemergence, 500 g ai/ha",80
same,Barnyardgrass plant response rating,"[8]; 62 g ai/ha, scale 0 to 100 (0 no effect, 100 complete control)",0
same,Barnyardgrass plant response rating,[8]; [24],0
same,Barnyardgrass plant response rating,[8]; [25],20
same,"Plant response rating, Barnyardgrass",[8]; [26],30
same,"Sedge, Umbrella plant response rating","[9]; 62 g ai/ha, scale 0 to 100",70
same,"Sedge, Umbrella plant response rating",[9]; [24],75
same,"Sedge, Umbrella plant response rating",[9]; [25],80
same,"Plant response rating, Sedge, Umbrella",[9]; [26],85
same,Ducksalad plant response rating,[10],90
same,Rice plant response rating,[11],60
same,"Plant response rating (0 to 100 scale), Foxtail, Giant",[12]; [22],30
same,"Foxtail, Giant plant response rating",[12]; [23],10
same,"Foxtail, Giant plant response rating","[12]; Postemergence, 500 g ai/ha",40
same,"Plant response rating (0 to 100 scale), Surinam Grass",[13]; [22],40
same,Surinam Grass plant response rating,[13]; [23],0
same,Surinam Grass plant response rating,"[13]; Postemergence, 500 g ai/ha",10
same,"Oat, Wild plant response rating",[14]; [23],0
same,"Oat, Wild plant response rating","[14]; Postemergence, 500 g ai/ha",10
same,"Sedge, Umbrella plant response rating",[15],90
same,Wheat plant response rating,"[16]; 125 g ai/ha, visual rating, scale 0 (no effect) to 100 (complete control), postemergence",0
same,Wheat plant response rating,"[16]; 500 g ai/ha, scale 0 to 100, 0 no effect, 100 complete control, preemergence",100
same,Wheat plant response rating,"[16]; Postemergence, 500 g ai/ha, scale 0 (no effect) to 100 (complete control)",0
same,"Plant response rating (0 to 100 scale), Barnyardgrass",[17]; [22],70
same,Barnyardgrass plant response rating,[17]; [23],10
same,Barnyardgrass plant response rating,"[17]; Postemergence, 500 g ai/ha",10
same,"Plant response rating (0 to 100 scale), Morningglory",[18]; [22],60
same,Morningglory plant response rating,[18]; [23],20
same,Morningglory plant response rating,"[18]; Postemergence, 500 g ai/ha",70
same,Blackgrass plant response rating,[19]; [23],10
same,Blackgrass plant response rating,"[19]; Postemergence, 500 g ai/ha",30
same,"Plant response rating (0 to 100 scale), Pigweed",[20]; [22],70
same,Pigweed plant response rating,[20]; [23],10
same,Pigweed plant response rating,"[20]; Postemergence, 500 g ai/ha",30
same,"Plant response rating (0 to 100 scale), Cocklebur",[21]; [22],40
same,Cocklebur plant response rating,[21]; [23],10
same,Cocklebur plant response rating,"[21]; Postemergence, 500 g ai/ha",30
